# Toxic doses and inconclusive results are not listed.
# System: L1210 leukemia ip in BDF1 mice, survival T/C
# Assay: NCI In Vivo Anticancer Drug Screen. Data for tumor model L1210 Leukemia (intraperitoneal) in B6D2F1 (BDF1) mice
# Conditions: endpoint: mean survival time, higher = longer survival
# Procedure, shortened: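 Transplanted-tumor mice were given test agent; controls received vehicle only. Survival readings from the two groups were divided (treated over control).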
# [1] = dose: 100.0 mg/kg/injection, schedule: Q04DX002 (ip), vehicle: saline with Tween-80
# [2] = dose: 100.0 mg/kg/injection, schedule: Q01DX009 (ip), vehicle: Klucel (hydroxypropylcellulose) (HPC)
# [3] = dose: 200.0 mg/kg/injection, schedule: Q01DX009 (ip), vehicle: Klucel (hydroxypropylcellulose) (HPC)
# [4] = dose: 400.0 mg/kg/injection, schedule: Q01DX009 (ip), vehicle: Klucel (hydroxypropylcellulose) (HPC)
# [5] = dose: 100.0 mg/kg/injection, schedule: Q04DX003 (ip), vehicle: Klucel (hydroxypropylcellulose) (HPC)
# [6] = dose: 200.0 mg/kg/injection, schedule: Q04DX003 (ip), vehicle: Klucel (hydroxypropylcellulose) (HPC)
# [7] = dose: 400.0 mg/kg/injection, schedule: Q04DX003 (ip), vehicle: Klucel (hydroxypropylcellulose) (HPC)
# [8] = dose: 12.5 mg/kg/injection, schedule: Q04DX003 (ip), vehicle: Klucel (hydroxypropylcellulose) (HPC)
# [9] = dose: 25.0 mg/kg/injection, schedule: Q01DX009 (ip), vehicle: Klucel (hydroxypropylcellulose) (HPC)
# [10] = dose: 50.0 mg/kg/injection, schedule: Q01DX009 (ip), vehicle: Klucel (hydroxypropylcellulose) (HPC)
# [11] = dose: 100.0 mg/kg/injection, schedule: Q04DX003 (ip), vehicle: saline with Tween-80
# [12] = dose: 200.0 mg/kg/injection, schedule: Q04DX003 (ip), vehicle: saline with Tween-80
smiles,measurement,setting,value
C1=Cc2ccccc2/C1=C/c1ccccc1,T/C,"dose: 100.0 mg/kg/injection, schedule: Q01DX001 (ip), vehicle: other",97 % of control
same,T/C,"dose: 200.0 mg/kg/injection, schedule: Q01DX001 (ip), vehicle: other",95 % of control
same,T/C,"dose: 400.0 mg/kg/injection, schedule: Q01DX001 (ip), vehicle: other",92 % of control
Cc1c(Cl)cccc1NC(=S)NC(=O)c1ccccc1,T/C,[1],110 % of control
same,T/C,"dose: 200.0 mg/kg/injection, schedule: Q04DX002 (ip), vehicle: saline with Tween-80",100 % of control
same,T/C,"dose: 400.0 mg/kg/injection, schedule: Q04DX002 (ip), vehicle: saline with Tween-80",89 % of control
Clc1ccc([I+]c2ccc(Cl)c(Cl)c2)cc1Cl,T/C,"dose: 4.0 mg/kg/injection, schedule: Q01DX015 (ip), vehicle: carboxymethylcellulose (CMC)",98 % of control
same,T/C,"dose: 8.0 mg/kg/injection, schedule: Q01DX015 (ip), vehicle: carboxymethylcellulose (CMC)",96 % of control
same,T/C,"dose: 16.0 mg/kg/injection, schedule: Q01DX015 (ip), vehicle: carboxymethylcellulose (CMC)",87 % of control
same,T/C,"dose: 32.0 mg/kg/injection, schedule: Q01DX015 (ip), vehicle: carboxymethylcellulose (CMC)",96 % of control
same,T/C,"dose: 100.0 mg/kg/injection, schedule: Q01DX001 (ip), vehicle: carboxymethylcellulose (CMC)",95 % of control
same,T/C,"dose: 200.0 mg/kg/injection, schedule: Q01DX001 (ip), vehicle: carboxymethylcellulose (CMC)",106 % of control
same,T/C,"dose: 400.0 mg/kg/injection, schedule: Q01DX001 (ip), vehicle: carboxymethylcellulose (CMC)",111 % of control
CC(CO)CCC(=O)C(C)C1C2(CC3C4CCC5CC(O)CCC5(C)C4CCC31C)SCCS2 (configuration not stated),T/C,"dose: 25.0 mg/kg/injection, schedule: Q04DX002 (ip), vehicle: saline with Tween-80",100 % of control
same,T/C,"dose: 50.0 mg/kg/injection, schedule: Q04DX002 (ip), vehicle: saline with Tween-80",100 % of control
same,T/C,[1],96 % of control
Cc1nccn1-c1ccc(N=Cc2ccc(N(CCCl)CCCl)cc2)cc1,T/C,"dose: 43.8 mg/kg/injection, schedule: Q04DX002 (ip), vehicle: Klucel (hydroxypropylcellulose) (HPC)",106 % of control
same,T/C,"dose: 87.5 mg/kg/injection, schedule: Q04DX002 (ip), vehicle: Klucel (hydroxypropylcellulose) (HPC)",106 % of control
same,T/C,"dose: 175.0 mg/kg/injection, schedule: Q04DX002 (ip), vehicle: Klucel (hydroxypropylcellulose) (HPC)",109 % of control
Cc1cccc(Cl)c1NC(=O)c1ccc(C(=O)Nc2c(C)cccc2Cl)cc1,T/C,[2],87 % of control
same,T/C,[3],94 % of control
same,T/C,[4],94 % of control
O=C(NCCc1ccccc1)Nc1cc([N+](=O)[O-])ccc1F,T/C,[5],94 % of control
same,T/C,[6],96 % of control
same,T/C,[7],102 % of control
c1cc2cc3c(cc2c2c1CC1c4cc5c(cc4CCN1C2)OCO5)OCO3 (configuration not stated),T/C,[2],103 % of control
same,T/C,[5],101 % of control
same,T/C,[3],97 % of control
same,T/C,[6],97 % of control
same,T/C,[4],97 % of control
same,T/C,[7],94 % of control
S=c1[nH]nc2ccccn12,T/C,[5],100 % of control
same,T/C,[6],94 % of control
same,T/C,[7],94 % of control
O=C(CCl)NP(=O)(O)OCc1ccccc1,T/C,"dose: 25.0 mg/kg/injection, schedule: Q04DX002 (ip), vehicle: saline",102 % of control
same,T/C,"dose: 50.0 mg/kg/injection, schedule: Q04DX002 (ip), vehicle: saline",94 % of control
same,T/C,"dose: 100.0 mg/kg/injection, schedule: Q04DX002 (ip), vehicle: saline",91 % of control
N#Cc1c(CSC(=N)N)sc2ccccc12,T/C,[8],102 % of control
same,T/C,[9],105 % of control
same,T/C,"dose: 25.0 mg/kg/injection, schedule: Q04DX003 (ip), vehicle: Klucel (hydroxypropylcellulose) (HPC)",101 % of control
same,T/C,[10],101 % of control
same,T/C,"dose: 50.0 mg/kg/injection, schedule: Q04DX003 (ip), vehicle: Klucel (hydroxypropylcellulose) (HPC)",96 % of control
same,T/C,[2],100 % of control
same,T/C,[5],98 % of control
Cc1cccc(Cl)c1NC(=O)Oc1ccc2c(C)cc(=O)oc2c1,T/C,[2],102 % of control
same,T/C,[3],100 % of control
same,T/C,[4],87 % of control
O=C(NCCCN1CC1)C(=O)NCCCN1CC1,T/C,"dose: 1.5 mg/kg/injection, schedule: Q04DX003 (ip), vehicle: Klucel (hydroxypropylcellulose) (HPC)",121 % of control
same,T/C,"dose: 2.3 mg/kg/injection, schedule: Q04DX003 (ip), vehicle: Klucel (hydroxypropylcellulose) (HPC)",110 % of control
same,T/C,"dose: 3.12 mg/kg/injection, schedule: Q04DX003 (ip), vehicle: Klucel (hydroxypropylcellulose) (HPC)",112 % of control
same,T/C,"dose: 5.3 mg/kg/injection, schedule: Q04DX003 (ip), vehicle: Klucel (hydroxypropylcellulose) (HPC)",166 % of control
same,T/C,"dose: 8.0 mg/kg/injection, schedule: Q04DX003 (ip), vehicle: Klucel (hydroxypropylcellulose) (HPC)",173 % of control
same,T/C,"dose: 12.0 mg/kg/injection, schedule: Q04DX003 (ip), vehicle: Klucel (hydroxypropylcellulose) (HPC)",215 % of control
same,T/C,[8],180 % of control
same,T/C,"dose: 18.0 mg/kg/injection, schedule: Q04DX003 (ip), vehicle: Klucel (hydroxypropylcellulose) (HPC)",183 % of control
O=C(C[n+]1ccc(-c2ccccc2)cc1)c1ccccc1,T/C,"dose: 100.0 mg/kg/injection, schedule: Q04DX003 (ip), vehicle: saline",109 % of control
same,T/C,"dose: 200.0 mg/kg/injection, schedule: Q04DX003 (ip), vehicle: saline",105 % of control
Cc1ccc(C)c(Cc2c(C=O)[nH]c(=S)[nH]c2=O)c1,T/C,[11],97 % of control
same,T/C,[12],101 % of control
same,T/C,"dose: 400.0 mg/kg/injection, schedule: Q04DX003 (ip), vehicle: saline with Tween-80",110 % of control
O=c1c(O)c(O)c1=O,T/C,"dose: 75.0 mg/kg/injection, schedule: Q01DX001 (ip), vehicle: carboxymethylcellulose (CMC)",89 % of control
same,T/C,"dose: 150.0 mg/kg/injection, schedule: Q01DX001 (ip), vehicle: carboxymethylcellulose (CMC)",98 % of control
Nc1ccnc(Cl)c1N,T/C,"dose: 50.0 mg/kg/injection, schedule: Q01DX009 (ip), vehicle: saline with Tween-80",111 % of control
same,T/C,"dose: 50.0 mg/kg/injection, schedule: Q04DX003 (ip), vehicle: saline with Tween-80",97 % of control
same,T/C,"dose: 100.0 mg/kg/injection, schedule: Q01DX009 (ip), vehicle: saline with Tween-80",111 % of control
same,T/C,[11],101 % of control
same,T/C,"dose: 200.0 mg/kg/injection, schedule: Q01DX009 (ip), vehicle: saline with Tween-80",109 % of control
same,T/C,[12],95 % of control
NC(=O)N/N=C1\CCCC(CCC(=O)O)C1 (configuration not stated),T/C,"dose: 75.0 mg/kg/injection, schedule: Q01DX009 (ip), vehicle: other",101 % of control
same,T/C,"dose: 100.0 mg/kg/injection, schedule: Q01DX001 (ip), vehicle: saline",89 % of control
same,T/C,"dose: 150.0 mg/kg/injection, schedule: Q01DX009 (ip), vehicle: other",93 % of control
same,T/C,"dose: 200.0 mg/kg/injection, schedule: Q01DX001 (ip), vehicle: saline",108 % of control
same,T/C,"dose: 300.0 mg/kg/injection, schedule: Q01DX009 (ip), vehicle: other",94 % of control
same,T/C,"dose: 400.0 mg/kg/injection, schedule: Q01DX001 (ip), vehicle: saline",100 % of control
Cc1cc(C(=O)NNCc2ccccc2)no1,T/C,"dose: 12.5 mg/kg/injection, schedule: Q01DX009 (ip), vehicle: Klucel (hydroxypropylcellulose) (HPC)",102 % of control
same,T/C,[9],96 % of control
same,T/C,[10],97 % of control
CCC(=O)OC(OC(=O)CC)c1cccc2ccccc12,T/C,"dose: 222.0 mg/kg/injection, schedule: Q01DX Z (ip), vehicle: saline",90 % of control
same,T/C,"dose: 333.0 mg/kg/injection, schedule: Q01DX Z (ip), vehicle: saline",86 % of control
same,T/C,"dose: 500.0 mg/kg/injection, schedule: Q01DX Z (ip), vehicle: saline",95 % of control
Oc1cc2c3c(c1)-c1c(ccc(O)c1O)CC3NCC2 (configuration not stated),T/C,"dose: 6.25 mg/kg/injection, schedule: Q04DX003 (ip), vehicle: DMSO",100 % of control
same,T/C,"dose: 12.5 mg/kg/injection, schedule: Q04DX003 (ip), vehicle: DMSO",100 % of control
same,T/C,"dose: 25.0 mg/kg/injection, schedule: Q04DX003 (ip), vehicle: DMSO",93 % of control
same,T/C,"dose: 50.0 mg/kg/injection, schedule: Q04DX003 (ip), vehicle: DMSO",88 % of control
Cc1ccc(N2CCN(c3ccc(C)cc3)CC2)cc1,T/C,"dose: 100.0 mg/kg/injection, schedule: Q04DX002 (ip), vehicle: gum acacia",109 % of control
same,T/C,"dose: 200.0 mg/kg/injection, schedule: Q04DX002 (ip), vehicle: gum acacia",95 % of control
same,T/C,"dose: 400.0 mg/kg/injection, schedule: Q04DX002 (ip), vehicle: gum acacia",103 % of control
